These results are taken from paper PMC9029599, “Cytotoxicity and Antiviral Properties of Alkaloids Isolated from Pancratium maritimum” (Toxins, 2022).

Where two headings read alike, the source gives them in different places.

Series [1] in a line: Cytotoxicity in THP-1 cells (ATP levels, Cell-Titer GLO). The conditions noted are these: human. As for the experimental part: (§1) To account for non-specific antiviral activity caused by enhanced cell death, the cytotoxicity of P. maritimum isolated AAs was first determined in THP-1 and Huh7 virus-targeted cell lines exposed to concentrations ranging from 0.05 to 200 µM for 72 h. Cell viability was measured using ATP levels as a marker.
(§2) The monocytic cell line THP-1 derived from an acute monocytic leukemia patient was used in HIV-1GFP infection assays, while the hepatocyte-derived carcinoma cell line Huh7 was used with DENVGFP. Cell viability was evaluated using the Cell-Titer GLO assay kit (Promega, Madison, WI, USA) as previously described. Briefly, 7.5 × 10^3 Huh7 cells/well or 4 × 10^4 THP-1 cells/well were seeded in 96-well dark plates and treated with isolated AAs dissolved in methanol at concentrations ranging from 0.05 to 200 µM for 72 h. Afterwards, Cell-Titer GLO reagent was added in each well of room temperature-equilibrated plates. Luminescence was measured 10 min after shaking the plates for 2 min using a microplate spectrophotometer (Synergy H1, Biotek, Québec, QC, Canada). The percentage of viable cells was calculated at each concentration relatively to cells treated with matched concentrations of MetOH.

A short description of a further series: in vitro. The conditions noted are these: human. The method, then: as §1, §2
In a further series the test system is Huh7 cells. Briefly: Cytotoxicity in Huh7 cells (ATP levels, Cell-Titer GLO). As for the experimental part:
as §1, §2

The subject of series [2] is VSV-G-pseudotyped HIV-1GFP. Briefly: cells. The conditions noted are these: for EC50: read-out: EC50 HIVGFP. In kind it is cell-based, human immunodeficiency virus-1.
The subject of the next series is DENVGFP. Put plainly: microbe, parasite or virus in culture. Format: cell-based, dengue virus.
A further series has as its system AGS cells. Put plainly: MTT viability test, AGS cells. In kind it is cell-based. The conditions noted are these: for IC50: Homo sapiens, AGS; for cytotoxic activity on AGS cells: in words; for effect on AGS cell viability: 0.5 to 50 µM, 24 and 48 h.
The subject of a further series is THP-1 cells. Put plainly: Cytotoxicity in THP-1 cells (ATP levels, Cell-Titer GLO). The conditions noted are these: 72 h; for live THP-1 cells: 6.25 µM. As for the experimental part:
as §1, §2

Series [3] deals with Hacat cells. The conditions noted are these: for reduction of Hacat cell viability: 10 µM, 24 h of treatment, MTT; for cytotoxic activity on Hacat cells: in words.
Description: (§3) The potential cytotoxic activity of P. maritimum alkaloids was evaluated on Hacat, A431 and AGS cells treated with concentrations ranging from 0.5 to 10 µM for 24 and 48 h by measuring the reduction of 3-(4,5-dimethylthiazol-2) 2,5- diphenyltetrazolium bromide (MTT) to formazan by the mitochondrial enzyme succinate dehydrogenase.
(§4) HaCaT, spontaneously immortalized keratinocytes from adult skin, and AGS gastric adenocarcinoma cells were purchased from Service Cell Line (GmBH, Eppelheim, CLS, Germany). A431 (ATCC-CRL1555) human epidermoid carcinoma cells were from American Type Culture Collection (ATCC, Manassas, VA, USA). All mentioned cell lines were cultured in Dulbecco’s Modified Eagle’s Medium (DMEM, Sigma Chemical Co., St. Louis, MO, USA) supplemented with 10% fetal bovine serum (FBS, Hyclone Laboratories, Inc. Logan, UT, USA) at 37 °C in a humidified atmosphere of 5% CO2. Absence of mycoplasma contamination was verified for all cell lines. The purified alkaloids were resuspended in DMSO and added to the cell medium at concentrations varying from 0.5 to 50 µM as indicated.
(§5) Cell viability was evaluated by measuring the reduction of 3-(4,5-dimethylthiazol-2) 2,5-diphenyltetrazolium bromide (MTT) to formazan by the mitochondrial enzyme succinate dehydrogenase. Briefly, 10 × 10^3 cells were seeded on 96-well plates and exposed to different concentrations of total extract or metabolites for 48 h. and 72 h. MTT/PBS solution (0.5 mg/mL) was then added to the wells and incubated for 3 h at 37 °C in a humidified atmosphere. The reaction was stopped by removal of the supernatant followed by dissolving the formazan product in acidic isopropanol and the optical density was measured with Synergy H4 microplate reader Gen5 2.07 (Thermofisher, Waltham, MA, USA) using a 570 nm filter. Under these experimental conditions, no undissolved formazan crystals were observed. Cell viability was assessed by comparing the optical density of the treated samples compared to the controls. Statistical analyses were carried out using the GraphPad Prism version 8.1.2 (https://www.graphpad.com/scientific-software/prism/ (accessed on 18 December 2021)). Data were represented as the mean standard deviation and analyzed for statistical significance using ordinary one-way analysis of variance (ANOVA) and multiple comparisons. For all tests, p < 0.05 was considered to indicate a statistically significant difference.
Series [4] relates to A431 cells. The conditions noted are these: for reduction of A431 cell viability: 10 µM, 24 h of treatment, MTT; for cytotoxic activity on A431 cells: in words.
Description: as §3, §4, §5
Series [5] deals with Hacat cells. Put plainly: cells. The conditions noted are these: Homo sapiens, read-out: IC50 Hacat.
Description: as §3, §4, §5
Series [6] concerns A431 cells. Briefly: cells. The conditions noted are these: Homo sapiens, A-431, read-out: IC50 A431.
Description: as §3, §4, §5
Where [7] appears, read: Dengue virus, Huh-7, 72 h, read-out: EC50 DENVGFP, Huh7 cells, MOI = 0.02, 72 h.
Where [8] appears, read: MTT, time not stated, read-out: IC50 AGS.
Where [9] appears, read: Dengue virus, Huh-7, read-out: EC50 DENV, Huh7 cells.
Setting [10] is: read-out: EC50 DENVGFP, Huh7 cells, MOI = 0.02, 72 h.

Description for AGS cells: as §3, §4
Cell viability was evaluated by measuring the reduction of 3-(4,5-dimethylthiazol-2) 2,5-diphenyltetrazolium bromide (MTT) to formazan by the mitochondrial enzyme succinate dehydrogenase. Briefly, 10 × 10^3 cells were seeded on 96-well plates and exposed to different concentrations of total extract or metabolites for 48 h. and 72 h. MTT/PBS solution (0.5 mg/mL) was then added to the wells and incubated for 3 h at 37 °C in a humidified atmosphere. The reaction was stopped by removal of the supernatant followed by dissolving the formazan product in acidic isopropanol and the optical density was measured with Synergy H4 microplate reader Gen5 2.07 (Thermofisher, Waltham, MA, USA) using a 570 nm filter. Under these experimental conditions, no undissolved formazan crystals were observed. Cell viability was assessed by comparing the optical density of the treated samples compared to the controls. […] Data were represented as the mean standard deviation and analyzed for statistical significance using ordinary one-way analysis of variance (ANOVA) and multiple comparisons. For all tests, p < 0.05 was considered to indicate a statistically significant difference.

`OC1C=CC23c4cc5c(cc4CN(CC2O)C3C1)OCO5` (centres unmarked) [11-Hydroxyvittatine]: the viability at 72 h, 100 µM in [1] was 52.3%. The CC50 at 72 h in series [1] (CC50 THP-1, 72 h, ATP levels) came to 113 µM. In addition, in “in vitro”, the viability at 72 h, 50 µM worked out at 73.8%. In addition, in the series with Huh7 cells (72 h), the “concentration at which Huh7 cell viability is reduced” value is “higher than 50 µM”. For the same compound, the “inhibition of HIV-1GFP, dose dependence” value in [2] is “dose-dependent inhibition of HIV-1”. The EC50 in series [2] (Homo sapiens, THP-1, 72 h) came out at 65.1 µM; in the series on DENVGFP (setting [7]), 3.92 µM.
As for `COC1C=CC23c4cc5c(cc4CN(CC2O)C3C1)OCO5` (centres unmarked) [Haemanthamine], the IC50 was 7.5 µM in the series on AGS cells (24 h, read-out: IC50 AGS cells at 24 h); 7.5 µM in the series on AGS cells (MTT, 48 h, read-out: IC50 AGS cells at 48 h); 7.5 µM in the series with AGS cells (setting [8]). Also, the CC50 at 72 h in [1] (CC50 THP-1, 72 h, ATP levels) was found to be 22.2 µM. In the series with THP-1 cells, the “live THP-1 cells” value stood at 71%. For the same compound, the “concentration at which THP-1 cell viability begins to decrease” value (from here on “concentration … to decrease”) in the series on THP-1 cells stood at 3.125 µM. For the same compound, in the series with THP-1 cells (read-out: CC50 THP-1, ATP levels), the CC50 was 22.2 µM. Further, the “live Huh7 cells” value in the series on Huh7 cells (3.125 µM, 72 h) worked out at 82.2%. Also, the “concentration at which Huh7 cell viability is reduced” value in the series with Huh7 cells (72 h) was “above 3.125 µM”. Also, the “HIV-1GFP inhibition at 100 µM” value in [2] is on record as “Complete viral inhibition”. In addition, the “inhibition of HIV-1GFP, dose dependence” value in [2] is recorded as “dose-dependent inhibition of HIV-1”. The concentration giving a half-maximal response (EC50) in series [2] (Homo sapiens, THP-1, 72 h) came to 25.3 µM; in [2], 25.3 µM; with DENVGFP (setting [7]) it was 0.34 µM; in the series on DENVGFP (setting [9]), 0.337 µM. In the series with DENVGFP (Huh7 cells), the “DENVGFP inhibition at 1.56 µM” value was “Complete inhibition”. Moreover, the “reduction of Hacat cell viability” value in the series with Hacat cells [3] is listed as 15–30%. The “reduction of A431 cell viability” value in the series with A431 cells [4] is recorded as 15–30%.
In the case of `CO[C@@H]1C=C[C@@]23c4cc5c(cc4C(O)N(C[C@@H]2O)[C@H]3C1)OCO5` (some centres unmarked) [Haemanthidine], in the series on AGS cells (setting [8]), the IC50 came out at 5 µM. For the same compound, the “cytotoxic activity on AGS cells” value with AGS cells is “showed cytotoxic activity”. In addition, the CC50 at 72 h in [1] (CC50 THP-1, 72 h, ATP levels) amounted to 16.8 µM. Also, in the series on THP-1 cells, the “live THP-1 cells” value is reported as 71% and the “concentration … to decrease” value is recorded as 3.125 µM. The “live Huh7 cells” value with Huh7 cells (6.25 µM, 72 h) is reported as 83.3%. Also, the “concentration at which Huh7 cell viability is reduced” value with Huh7 cells (72 h) amounted to 6.25 µM. Further, in [2], the “HIV-1GFP inhibition at 100 µM” value is reported as “Complete viral inhibition”; the “inhibition of HIV-1GFP, dose dependence” value is on record as “dose-dependent inhibition of HIV-1”; the EC50 is 12.7 µM. The EC50 in series [2] (Homo sapiens, THP-1, 72 h) was found to be 12.7 µM. Besides, in the series with DENVGFP (Huh7 cells), the “DENVGFP inhibition at 1.56 µM” value is listed as “Complete inhibition”. In the series with DENVGFP (setting [7]), the EC50 amounted to 0.48 µM. Also, in the series on DENVGFP (setting [9]), the EC50 was determined as 0.476 µM. For the same compound, in the series with Hacat cells [3], the “reduction of Hacat cell viability” value is given as 15–30% and the “cytotoxic activity on Hacat cells” value was “showed cytotoxic activity”. Further, in the series on A431 cells [4], the “reduction of A431 cell viability” value is 15–30% and the “cytotoxic activity on A431 cells” value is listed as “showed cytotoxic activity”.
`COc1cc2c(cc1OC)[C@H]1[C@H]3C(=CC[C@H]1OC2=O)CCN3C` [Homolycorine]: the EC50 with DENVGFP (setting [7]) and in the series on DENVGFP (setting [10]) was 65 µM in each case.
Take `O[C@H]1[C@H]2c3cc4c(cc3CN3CCC(=C[C@@H]1O)[C@H]23)OCO4` [Lycorine]: the IC50 in the series on AGS cells (setting [8]) is below 0.5 µM; with Hacat cells [5], 0.5 µM; in the series on A431 cells [6], 0.5 µM. Besides, the “cytotoxic activity on AGS cells” value in the series with AGS cells is on record as “showed cytotoxic activity”. The CC50 at 72 h in series [1] (CC50 THP-1) came to 4.6 µM. Further, the CC50 with THP-1 cells (human) is 4.61 µM. Further, the “reduction of Huh7 viability” value with Huh7 cells (0.78 µM, 72 h) was 21%. Moreover, the “reduction of Huh7 cell viability” value in the series on Huh7 cells (1.56 µM) came to 25%. Further, the “HIV-1GFP inhibition at 100 µM” value in [2] was “Complete viral inhibition”. For the same compound, the “inhibition of HIV-1GFP, dose dependence” value in [2] was “dose-dependent inhibition of HIV-1”. Further, the EC50 in [2] (Homo sapiens, THP-1, 72 h) stood at 10.9 µM; in the series on DENVGFP (setting [7]), 0.386 µM; with DENVGFP (setting [10]), 0.39 µM. In the series on DENVGFP (Huh7 cells), the “DENVGFP inhibition at 1.56 µM” value is recorded as “Complete inhibition”. For the same compound, the “cytotoxic activity on Hacat cells” value in the series on Hacat cells [3] is “showed cytotoxic activity”. The “cytotoxic activity on A431 cells” value in the series with A431 cells [4] was “showed cytotoxic activity”.
Regarding `CO[C@@H]1C=C[C@@]23c4cc5c(cc4CN(CCc4ccc(O)cc4)[C@@H]2C(=O)N(C)[C@H]3C1)OCO5` [Obliquine], the viability at 72 h, 100 µM in series [1] is 55.3%; in “in vitro” (Huh7 hepatocyte-derived carcinoma cells), 82.6%. Also, the CC50 at 72 h in series [1] (CC50 THP-1, 72 h, ATP levels) came out at 127 µM. Moreover, in the series with Huh7 cells (72 h), the “concentration at which Huh7 cell viability is reduced” value is reported as 100 µM. For the same compound, in [2], the “inhibition of HIV-1GFP, dose dependence” value is “dose-dependent inhibition of HIV-1”. Moreover, the EC50 in series [2] (Homo sapiens, THP-1, 72 h) stood at 153 µM; in the series with DENVGFP (setting [7]), 73.6 µM; in the series on DENVGFP (setting [10]), 73.6 µM.
With `OC1C=C2C3CN(Cc4cc5c(cc43)OCO5)C2CC1O` (centres unmarked) [Pancracine], in series [1] (CC50 THP-1, 72 h, ATP levels), the CC50 at 72 h was 25.9 µM. The “live THP-1 cells” value in the series on THP-1 cells was 82%. Also, in the series on THP-1 cells, the “concentration … to decrease” value turned out to be 3.125 µM. Further, in the series with Huh7 cells (6.25 µM, 72 h), the “live Huh7 cells” value is 78.1%. For the same compound, in the series on Huh7 cells (72 h), the “concentration at which Huh7 cell viability is reduced” value stood at 6.25 µM. In addition, in series [2], the “HIV-1GFP inhibition at 100 µM” value is “Complete viral inhibition”. The “inhibition of HIV-1GFP, dose dependence” value in series [2] is on record as “dose-dependent inhibition of HIV-1”. The EC50 in [2] (Homo sapiens, THP-1, 72 h) was 18.5 µM; in series [2], 18.5 µM; in the series with DENVGFP (setting [7]) it was 0.358 µM; in the series with DENVGFP (setting [9]), 0.357 µM; with DENVGFP (setting [10]), 0.36 µM. Further, in the series with DENVGFP (Huh7 cells), the “DENVGFP inhibition at 1.56 µM” value was “Complete inhibition”.
On to `Cc1nnc(C(=O)NC(C)(C)c2nc(C(=O)NCc3ccc(F)cc3)c(O)c(=O)n2C)o1` [Raltegravir, reference compound], for which the “HIV-1 infection with positive control” value in series [2] is reported as “completely impeded HIV-1 infection”.
Regarding `CO[C@@H]1C=C[C@@]23c4cc5c(cc4CO[C@]2(O)CN(C)[C@H]3C1)OCO5` [Tazettine], the viability at 72 h, 100 µM in series [1] came to 60.9%. The CC50 at 72 h in series [1] (CC50 THP-1, 72 h, ATP levels) is 137 µM. Besides, the viability at 72 h, 50 µM in the series “in vitro” came out at 85.2%. Also, in the series on Huh7 cells (human, 72 h), the “concentration at which Huh7 cell viability is reduced” value is “higher than 50 µM”. In addition, in [2], the “inhibition of HIV-1GFP, dose dependence” value is given as “dose-dependent inhibition of HIV-1”. The EC50 came out at 120 µM in series [2] (Homo sapiens, THP-1, 72 h) and 12.5 µM with DENVGFP (setting [7]). Also, the “reduction of Hacat cell viability” value in the series on Hacat cells [3] is 15–30%. The “reduction of A431 cell viability” value with A431 cells [4] is given as 15–30%.
As for `O[C@@H]1C=C[C@]23CCN(Cc4cc5c(cc42)OCO5)[C@H]3C1` [Vittatine], in the series on DENVGFP (setting [7]), the EC50 was found to be 15.5 µM.
Turning to `COC1C=CC23c4cc5c(cc4C(OC(=O)c4ccc(Br)cc4)N(CC2OC(=O)c2ccc(Br)cc2)C3C1)OCO5` (centres unmarked) [compound 11, 6,11-O,O′-Di-p-Bromobenzoyl Ester of haemanthidine], in the series on AGS cells (MTT), the “effect on AGS cell viability” value is given as “able to reduce AGS cell viability”.
As for `COC1C=CC23c4cc5c(cc4C(OC(=O)c4ccc(Br)cc4)N(CC2OC(=O)c2ccc(Br)cc2)C3C1)OCO5` (centres unmarked) [compound 12, 6,11-O,O′-Di-p-Bromobenzoyl Ester of haemanthidine], in the series with AGS cells (MTT), the “effect on AGS cell viability” value is on record as “able to reduce AGS cell viability”.
